{"source": "patent US20260198495A1", "about": "“BINARY INSECTICIDE COMPOSITION AND USE THEREOF” (SHENYANG SINOCHEM AGROCHEMICALS R & D CO., LTD., priority 2022, published 2026)", "type_in_all_cases": "in vivo", "key": {"[1]": {"test_system": "2nd-instar larvae of Plutella xylostella", "experiment": "Synergism screening (Bliss) of I-72 + insect attractants and insecticides, Example 49, Table 49", "settings": "Plutella xylostella; single pesticide, 0.1 mg/L; 72 hours; read-out: Measured mortality rate", "procedure": "Test target: 2nd-instar larvae of Plutella xylostella.\n(§1) Preparation of the pesticide solution: according to different test requirements, the test samples were accurately weighed respectively with an electronic analytical balance. The technical pesticides were dissolved in acetone, and then diluted with 0.1% Tween 80 water into a series of pesticide solutions with a certain concentration gradient according to the experimental design dosage.\nExperimental method: first, cabbage leaves were selected and dipped in the prepared pesticide solution for 10 s in the order from low dosage to high dosage according to the experimental design. After natural air-drying in the shade, they were placed in a 9-cm-diameter Petri dish with filter paper, and uniform and healthy test insects were introduced, with 10 insects for each treatment and 3 replicates for each treatment. In addition, a blank control CK was set up.\nThe treated test materials were placed in an observation room, and the temperature, humidity and illumination of the observation room could be adjusted as needed. The number of dead and alive insects was investigated 72 hours later, and the corrected mortality rate was calculated using the Abbott's formula.\nThe synergism of the mixture was evaluated by adopting the Bliss method, as in Example 5."}, "[2]": {"test_system": "Myzus persicae (Sulzer) nymphs", "experiment": "Joint toxicity of I-72 + pymetrozine, Example 73, Table 73", "settings": "A = compound I-72, B = pymetrozine, cabbage leaf spraying, 48 hours, read-out: LC50", "procedure": "Test target: Myzus persicae (Sulzer) nymphs, a sensitive strain reared indoors.\nas §1\nExperimental method: first, cabbage leaves with uniform and consistent Myzus persicae (Sulzer) were selected, with about 30-40 insects on each leaf. Then, they were evenly sprayed with the pesticide solution in the order from low dosage to high dosage according to the experimental design, with 1.5 mL of the solution for each leaf and 3 replicates for each treatment. In addition, a blank control was set up.\n(§2) The treated test materials were placed in an observation room, and the temperature, humidity and illumination of the observation room could be adjusted as needed. The number of dead and live insects was investigated 48 hours later. […] Then, the co-toxicity coefficient of each ratio was calculated using the Sun Y-P method to evaluate the mixing effect, as in Example 1."}, "[3]": {"test_system": "early 2nd-instar grubs of Holotrichia diomphalia Bates", "experiment": "whole plant or invertebrate", "settings": "Holotrichia diomphalia; A = compound I-72, B = tebuconazole; insect-dipping; 72 hours; read-out: LC50", "procedure": "Test target: early 2nd-instar grubs of Holotrichia diomphalia Bates.\nTest conditions: temperature: 24-26° C., humidity: RH 60%, and illumination: L:D=14:10\nas §1\nExperimental method: the activity against Holotrichia diomphalia Bates was determined by the insect-dipping method. The early 2nd-instar grubs of Holotrichia diomphalia Bates were selected. The target insects were dipped into the pesticide solution for 10 s and then taken out. Excess pesticide solution was absorbed with filter paper. […] A treatment without the pesticide was set as the blank control.\nThe test insects were transferred to a multi-well culture plate with fresh potato pieces and placed in an observation room, and the temperature, humidity and illumination of the observation room could be adjusted as needed. The number of dead and live insects was investigated 72 hours later. The corrected mortality rate was calculated using the Abbott's formula, and statistical analysis was performed with the DPS data processing software to obtain the toxicity regression equation and LC50 value of each single test pesticide and each mixture of different ratios."}, "[4]": {"test_system": "Nilaparvata lugens (Stal) nymphs", "experiment": "Joint toxicity of I-72 + buprofezin, Example 52, Table 52", "settings": "A = compound I-72, B = buprofezin, potted-seedling spraying, 72 hours, read-out: LC50", "procedure": "Test target: Nilaparvata lugens (Stal) nymphs, a sensitive strain reared indoors.\nas §1\nExperimental method: the activity of the mixture against the Nilaparvata lugens (Stal) nymphs was determined by adopting the potted-seedling spraying method. First, rice seedlings were planted in culture pots. Uniform spraying was performed with the pesticide solution in the order from low dosage to high dosage according to the experimental design, with 2 mL for each seedling. Then, Nilaparvata lugens nymphs of uniform size were transferred onto the rice seedlings, with 3 replicates for each treatment. In addition, a blank control was set up.\nas §2, with “72” for “48”"}, "[5]": {"test_system": "2nd-instar nymphs of Frankliniella occidentalis Pergande", "experiment": "Joint toxicity of I-72 + carbosulfan, leaf spraying, Example 22, Table 22", "settings": "2nd-instar nymphs, kidney bean leaf spraying, 48 h, A = compound I-72, B = carbosulfan, read-out: LC50", "procedure": "Test subject: 2nd-instar nymphs of Frankliniella occidentalis Pergande, a sensitive strain reared indoors.\nas §1, with “samples in Table 1” for “samples”\nTest conditions: temperature: 25-27° C., humidity: RH 60%, and illumination: L:D=14:10\nExperimental method: the spraying method was adopted. The kidney bean leaves cultivated in the greenhouse were selected, and the petioles were wrapped with moist degreased cotton and sealing film. They were evenly sprayed with the pesticide solution in the order from low dosage to high dosage according to the experimental design, placed in a 6-cm-diameter Petri dish with filter paper. After natural air-drying in the shade, the test insects were introduced, with 20 insects for each treatment and 3 replicates. In addition, a blank control was set up. […] The corrected mortality rate was calculated using the Abbott's formula, and the DPS data processing software was used for statistical analysis to calculate the toxicities (LC50 values) of the single test pesticides and the mixtures under the test ratios. […]"}, "[6]": {"test_system": "3rd-instar larvae of Spodoptera frugiperda", "experiment": "Joint toxicity of I-72 + indoxacarb, corn leaf dipping, Example 3, Table 3", "settings": "Spodoptera frugiperda, foliar, 72 h, A = compound I-72, B = indoxacarb, read-out: LC50", "excerpt": "Test subject: 3rd-instar larvae of Spodoptera frugiperda, a sensitive strain reared indoors.\nExperimental method: the dipping method was adopted. The corn leaves cultivated in the greenhouse were taken, cut into leaf segments of 5 cm long, dipped in the prepared pesticide solution for 10 s, and then cut into small pieces of 1.5 cm×1.5 cm after natural air-drying in the shade. These pieces were placed in a 24-well culture plate, and the standard test insects were introduced, with 48 insects for each treatment. The treated test insects were placed in an observation room under certain conditions. The reaction of the test insects was regularly observed, and the number of dead and live insects was investigated 72 h later.\nThe test conditions, the preparation method of the pesticide solution, and the evaluation method (Sun Y-P) for the joint action type of the mixture were the same as those in Example 1."}}, "data": [{"compound": "CN(C(=O)c1ccc2c(c1)OC(F)(F)O2)c1cccc(C(=O)Nc2c(Br)cc(C(F)(C(F)(F)F)C(F)(F)F)cc2OC(F)F)c1F", "note": "[Compound I-72]", "values": [{"measurement": "mortality at 0.1 µg/mL", "setting": "[1]", "value": 46.9, "unit": "%"}, {"measurement": "LC50", "setting": "[2]", "value": 7.96, "unit": "µg/mL"}, {"measurement": "LC50", "setting": "[3]", "value": 63.4, "unit": "µg/mL"}, {"measurement": "LC50", "setting": "[4]", "value": 253, "unit": "µg/mL"}, {"measurement": "LC50", "setting": "[5]", "value": 2.15, "unit": "µg/mL"}, {"measurement": "LC50", "setting": "[6]", "value": 0.0737, "unit": "µg/mL"}]}]}
